For three compounds, IC50 and inhibition results are on record in ChEMBL document CHEMBL3576827, “New anti-inflammatory tocopherol-derived metabolites from the Taiwanese soft coral Cladiella hirsuta” (Bioorg Med Chem Lett, 2015).

Molecules are shown by their SMILES. Where only a bound is given, the exact number is not on record here.

Holding throughout (settings): Neutrophil
A short description of experiment [1]: Antiinflammatory activity in human neutrophils assessed as inhibition of fMLP/CB-induced superoxide anion generation by measuring superoxide dismutase-inhibitable reduction of ferricytochrome c preincubated for 5 mins followed by fMLP/CB-induction measured after 10 mins by spectrophotometric analysis. Format: functional, cell-based.
Experiment [2] is described as follows: Antiinflammatory activity in human neutrophils assessed as inhibition of fMLP/CB-induced elastase release using MeO-Suc-Ala-Ala-Pro-Val-p-nitroanilide as elastase substrate at 10 uM preincubated for 5 mins followed by fMLP/CB-induction by spectroscopic analysis. Format: functional.
The nature of experiment [3]: Antiinflammatory activity in human neutrophils assessed as inhibition of fMLP/CB-induced elastase release using MeO-Suc-Ala-Ala-Pro-Val-p-nitroanilide as elastase substrate preincubated for 5 mins followed by fMLP/CB-induction by spectroscopic analysis. In kind it is functional, cell-based.
A short description of experiment [4]: Antiinflammatory activity in human neutrophils assessed as inhibition of fMLP/CB-induced superoxide anion generation by measuring superoxide dismutase-inhibitable reduction of ferricytochrome c at 10 uM preincubated for 5 mins followed by fMLP/CB-induction measured after 10 mins by spectrophotometric analysis. In kind it is functional.

Regarding `COC(=O)C(C)CCC[C@]1(C)CC[C@]2(O1)C(=O)C(C)=C(C)[C@@]2(O)C(C)=O` (stereo not given in full), the IC50 in experiment [1] worked out at 4.1 µM; in experiment [3], 3.7 µM. Further, the inhibition at 10 µM in experiment [2] was found to be 89.5%; in experiment [4], 78.3%.
As for `COC(=O)C(C)CCCC(C)(O)CCC1=C(C)C(=O)C2(C)OC2(C)C1=O` (stereo not given), the IC50 in experiment [1] and in experiment [3] was more than 10 µM throughout. Moreover, the figures for the inhibition at 10 µM in experiment [2] and in experiment [4] were 21.2% and 8.5%, respectively.
In the case of `O=c1cc(N2CCOCC2)oc2c(-c3ccccc3)cccc12` [LY-294002], the IC50 in experiment [1] came out at 0.6 µg/mL; in experiment [3] it was 1.2 µg/mL.

One may read the IC50 as the concentration at which inhibition is half-maximal. By inhibition is commonly meant the percentage by which the read-out fell short of the control.
